The values that follow come from paper PMC4444023 (PLoS ONE, 2015).

Data set [1] addresses T1, human nSMase2 (Homo sapiens, UniProt Q9NY59).
T1 sequence (Q9NY59 1-655): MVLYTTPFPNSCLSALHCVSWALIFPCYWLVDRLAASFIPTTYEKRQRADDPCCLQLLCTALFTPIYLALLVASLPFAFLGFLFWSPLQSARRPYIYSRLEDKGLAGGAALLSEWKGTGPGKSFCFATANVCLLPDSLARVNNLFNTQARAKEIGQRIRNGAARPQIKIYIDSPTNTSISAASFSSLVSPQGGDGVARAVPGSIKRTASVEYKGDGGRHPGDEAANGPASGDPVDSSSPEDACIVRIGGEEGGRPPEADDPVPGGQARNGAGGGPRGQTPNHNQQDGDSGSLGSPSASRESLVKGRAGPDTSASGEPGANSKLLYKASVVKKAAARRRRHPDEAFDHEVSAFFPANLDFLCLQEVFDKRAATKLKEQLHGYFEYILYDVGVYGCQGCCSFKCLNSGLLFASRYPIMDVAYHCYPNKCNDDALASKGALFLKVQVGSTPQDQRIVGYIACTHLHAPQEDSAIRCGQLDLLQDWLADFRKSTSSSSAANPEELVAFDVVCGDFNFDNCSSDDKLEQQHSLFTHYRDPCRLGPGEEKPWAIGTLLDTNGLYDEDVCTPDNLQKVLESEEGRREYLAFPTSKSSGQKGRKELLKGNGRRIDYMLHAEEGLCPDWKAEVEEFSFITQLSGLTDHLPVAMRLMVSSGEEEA
Put plainly: Fluorescence (Amplex red coupled) nSMase2 activity assay. Format: biochemical. More on the design: Full length human nSMase2 cDNA with a C-terminal Flag tag; crude cell lysate used as enzyme. To be noted: for inhibition of human nSMase2 activity: 150 μM GW4869, 100 μM manumycin A, altenusin, zoledronic acid; for block of human nSMase2 activity: even at 100 μM. As to the method:
The production of the latter was coupled to a dephosphorylation reaction catalyzed by alkaline phosphatase (4 U/ml) to produce choline, followed by oxidation of choline by choline oxidase (0.1 U/ml) to produce betaine and H2O2, which in the presence of horseradish peroxidase (HRP, 1U/ml) and 50 μM Amplex red, generates the fluorescent molecule resorufin (Life Technologies). Substrate stock solution was prepared in 2% Triton X-100, vortexed and sonicated for 30 min. Reactions were carried out for 1 h at 37°C in 100 mM Tris-HCl pH 7.4, 10 mM MgCl2, 0.2% Triton X-100 and the generation of the fluorescent product was monitored by measuring relative florescence units (RFU) with excitation at 530 nm and emission at 590 nm (Fig 1). This assay was optimized for 384-well format (50 μl total volume per well) based on linearity of the enzymatic activity with respect to time, as well as substrate and enzyme concentrations. […] This fluorescence assay was used for compound screening and IC50 value determinations, based on duplicate eight-point dose response curves.

The target of data set [2] is nSMase. More on the design: method as in PMID 21615386, PMID 17049336. As to conditions: cited from earlier work; for IC50: Enzyme source: Rat brain.
For data set [3], the target named is nSMase. More on the design: method as in PMID 21615386, PMID 17049336. As to conditions: Enzyme source: Mouse brain; cited from earlier work.
Data set [4] relates to SIRT1. As to conditions: cited from earlier work.
Data set [5] has as its system rat primary hippocampal neurons. Kind of data set: Hippocampal neuronal survival (Hoechst 33342). Format: cell-based. As for the experimental part:
All animal procedures were approved by the Johns Hopkins University Animal Care and Use Committee. Primary hippocampal neurons were prepared from day 18 decapitated embryos of Sprague-Dawley rats following previously described methods. Cells were seeded on polyethyleneimine (PEI)-coated slides in 12-well plates and cultured between 14–21 days. […] After 18 h, cells were stained with 50 μg/ml Hoeschst 33342 for 20 min and then fixed with 4% paraformaldehyde for 30 min. The number of living and apoptotic cells was determined by fluorescence microscopy. A minimum of 500 cells were counted per treatment condition. Results were normalized to control untreated cells and were representative of at least two independent experiments conducted in triplicate. Statistical evaluation of the data was done by Student’s t-test.

Data set [6] relates to SIRT2. As to conditions: cited from earlier work.
The nature of data set [7]: Solubility. To be noted: cambinol compared to GW4869. Format: physicochemical.
The conditions of data set [8]: in DMSO; cited from earlier work.
For data set [9], the system named is nSMase. Details: method as in PMID 21615386, PMID 17049336. As to conditions: cited from earlier work.
Data set [10] has as its target T1, human nSMase2. Put plainly: 14C-SM confirmatory direct activity assay. Format: biochemical. More on the design: Full length human nSMase2 cDNA with a C-terminal Flag tag; host or cells: HEK293, stably transfected; crude cell lysate used as enzyme. As to the method: This assay was dependent on the direct hydrolysis of ^14C-labeled SM (^14C N-methyl groups in the phosphorylcholine) by human nSMase2. Optimization of assay conditions was accomplished according to the methods of Barbone et al.. Briefly, bovine [N-methyl-^14C]-sphingomyelin (specific activity […], Perkin Elmer) and phosphatidylinositol (Avanti Polar Lipids) were evaporated to dryness under a stream of nitrogen and resuspended at an equimolar concentration of 0.1 mM in water with 0.5% Triton X-100 (Sigma). The solution was vortexed for 30 min and then sonicated for 30 min. Assay conditions were as follows: 50 μl total volume per reaction, consisting of 20 μM SM, reaction buffer (100 mM Tris-HCl pH 7.5, 80 mM MgCl2, 0.1% Triton X-100); 10 μl cell lysate containing recombinant human nSMase2 (0.5–1 μg protein/assay) and 5 μl of compound in reaction buffer containing 10% DMSO. After 1 h incubation at 37°C the reaction was terminated by the addition of 30 μl of water and 175 μl of chloroform/methanol (2:1, v:v), followed by vigorous vortexing. Tubes were centrifuged for 5 min at 10,000 xg at room temperature to separate the organic bottom phase containing labeled SM and the aqueous upper phase containing ^14C-labeled-phosphorylcholine. An aliquot (50 μl) of the upper phase was transferred to a vial with 10 ml of scintillant and counted for 2 min on a Beckman LS-6000IC scintillation counter. Enzyme activity was directly proportional to the disintegrations per min (dpm) resulting from the generation of ^14C-phosphorylcholine.

Values after ≈ are worked out from the molar mass of the structure shown. Values joined by “and” are separate entries in the source; they are usually repeats but may differ in a detail not shown here. Equal values may be shown once. “Also recorded” adds a separate entry of the source. Read-outs that look alike come from different tables or passages of the source.

The IC50 is the point on the concentration scale where inhibition reaches its midpoint. With `COc1cc(O)c(C(=O)O)c(-c2cc(O)c(O)cc2C)c1` [Altenusin, reference compound], the “modulation of enzymatic activity (Fig 3C raw data)” value in [1] (100 µM) was 75.4 RFU and 73.8 RFU and 72.1 RFU and 74.7 RFU. The “inhibition of human nSMase2 activity” value in data set [1] is reported as “possible to inhibit enzyme activity; also recorded: inhibition”. In data set [2], the IC50 is 28 µM and the MOI entry is listed as “Non- competitive”.

Consider `CCCCCCCCCCC=NNC(=N)N` [C11AG], for which the half-inhibitory concentration (IC50) in [3] is 8 µM.

With `NC(=O)[C@H]1CCCCc2c1[nH]c1ccc(Cl)cc21` [CHIC-35, reference compound], the “block of human nSMase2 activity” value in data set [1] is recorded as “not possible to block”. Moreover, the IC50 is 70 µM in data set [1] (fluorescence nSMase2 assay (S2 Fig)), […] in [4] and 19.6 µM in data set [6]. Besides, the “neuron survival, Mean (normalized to control untreated cells)” value worked out at 71.88 in data set [5] (100 ng/ml TNFα, 200 nM compound) and 62.07 in data set [5] (No TNFα, 200 nM compound).

The solubility is how much of the substance goes into solution per volume. As for `O=C(/C=C\c1ccc(/C=C\C(=O)Nc2ccc(C3=NCCN3)cc2)cc1)Nc1ccc(C2=NCCN2)cc1` [GW4869, reference compound], the “modulation of enzymatic activity (Fig 3C raw data)” value in [1] (150 µM (nominal)) was 59.6 RFU and 72.8 RFU and 57.5 RFU and 70.4 RFU. The “inhibition of human nSMase2 activity” value in [1] is listed as “possible to inhibit enzyme activity; also recorded: inhibition”. For the same compound, in data set [2], the IC50 was 1 µM and the MOI result was “Non- competitive”. In addition, the “aqueous solubility” value in data set [7] is recorded as “low”. Moreover, the solubility in data set [8] is 200 µg/mL (≈ 396 µM).

Consider `CC1CC2C(C=CC3CC(O)CC4CC(=O)C(=CC32)C(=O)O4)C1=O` (stereo not drawn) [Macquarimicin A], for which, in data set [2], the IC50 was 145 µM and the MOI entry was “Non- competitive”.

For the compound `CCCC[C@@H](C)/C=C(C)/C=C(\C)C(=O)NC1=C[C@@](O)(/C=C/C=C/C=C/C(=O)NC2=C(O)CCC2=O)[C@@H]2O[C@@H]2C1=O` [Manumycin A, reference compound], the “inhibition of human nSMase2 activity” value in data set [1] is on record as “inhibition”. In [9], the MOI result was “Irreversible”.

For `CC[C@@H](C)/C=C(\C)C[C@@H](C)C[C@@H](C)/C=C/C=C/C=C/C(=O)N[C@H](CO)C[C@@]1(O)C(=O)C=C[C@@H]2O[C@@H]21` [Scyphostatin], in data set [2], the MOI result is listed as “Competitive”.

Take `CCCCn1c(-c2ccccc2)c(Cc2c(O)ccc3ccccc23)c(=O)[nH]c1=S` [compound 4]: the “human nSMase2 inhibitory activity of analog vs cambinol” value in [10] (SAR) is recorded as “loss of activity; also recorded: eliminated”. In addition, the IC50 in data set [10] ([14C]-SM direct activity assay, human recombinant enzyme) is over 100 µM. Besides, in [6], the “potency and specificity against SIRT 2 vs cambinol” value is listed as “significantly improved”.

For `CC(NC(=O)c1ccccc1/N=C/c1c(O)ccc2ccccc12)c1ccccc1` (stereo not drawn) [sirtinol, reference compound], the “block of human nSMase2 activity” value in data set [1] is on record as “not possible to block”. The concentration for half-maximal inhibition (IC50) was […] in data set [4] and […] in [6]. Also, the “neuron survival, Mean (normalized to control untreated cells)” value in data set [5] (100 ng/ml TNFα, 40 µM compound) is reported as 60.73; in data set [5] (No TNFα, 40 µM compound), 53.3.
